The results in this text go back to patent publication US7582681B2, “Synergistic mixtures of 1,2-alkane diols” (Symrise GmbH & Co. KG, priority 2002, dated 2009).

Values after ≈ are worked out from the molar mass of the structure shown.

Holding throughout (test): MIC, agar dilution method
Holding throughout (assay type): cell-based

Assay [1] concerns Brevibacterium epidermidis ATCC 35514. Conditions: ATCC35514, Mueller-Hinton agar, 18 h at 36° C. As to the method:
(§1) Petri dishes 9.0 cm in diameter were charged with 13.5 ml freshly prepared Mueller-Hinton agar (Merck, Ref. 1.05437 or Wilkins-Chalgren agar boullion, Oxoid, Ref. CM 643, supplemented with log agar-agar/liter) kept liquid at 50° C., to which the various concentrations of the diluted samples were added in 10% (V/V)=1.5 ml. Mueller-Hinton agar that contained 3% Tween80 (Merck, Ref. 8.22 187) was used for the test germ Malassezia furfur. In each case 5 ml of the samples were diluted in distilled water and made up to 10 ml. The further test concentrations of the particular dilution series, which were prepared in the form of geometric series, were prepared by progressive 1:2 dilution of this batch with distilled water. […] Two agar plates were poured per test concentration and nutrient medium. After solidification and drying (approx. 1 h at 37° C.), the test plates were inoculated in point form with, in each case, 1 μl of the test germ suspensions listed below. To check purity and identity the bacteria that grow aerobically (Brevibacterium epidermidis, Corynebacterium xerosis, Staphylococcus epidermidis) were [lacuna] on Columbia blood agar (BioMérieux, Ref. 43049). The mould Aspergillus niger, the yeast Candida albicans and the two skin fungi Trichophyton mentagrophytes and Epidermophyton floccosum were cultured on Sabouraud agar (BioMérieux, Ref. 43555). Malassezia furfur was cultured on Sabourad HLT agar with disinhibitors (addition of 3% Tween80: 1%; lecithin: 0.3%; histidine: 0.1%; Merck, Ref. 1.18368). Propionibacterium acnes was cultured on Schaedler agar (BioMérieux, Ref. 43273). Further details on the test germs can be taken from Table 5. The preparation of the test germ suspensions of the bacterial germs that grow aerobically was carried out by incubation of Mueller-Hinton broth (Merck, Ref. 1.10293) which had been inoculated with a few individual colonies of the relevant test germs, at 36° C. After a distinct turbidity had been obtained, sterile nutrient broth was added to the suspensions in such an amount that the turbidity thereof corresponded to McFarland standard 0.5 (approx. 1.5×10^8 CFU/ml). All test germ suspensions with the exception of Propionibacterium acnes were diluted again 1:10 with sterile broth and the germ count thereof was determined by the surface method using a Spiralometer (results: see Table 5). The MIC (minimum inhibitory concentration) was regarded as the lowest concentration of active compound at which macroscopically there is no growth. Minimal, barely visible growth or few small individual colonies were evaluated as inhibition.

In assay [2] the test system is Corynebacterium xerosis ATCC 7711. Conditions: ATCC7711, Mueller-Hinton agar, 18 h at 36° C. On the procedure: as §1
In assay [3] the test system is Staphylococcus epidermidis ATCC 12228. Conditions: ATCC12228, Mueller-Hinton agar, 18 h at 36° C. As to the method:
as §1

Assay [4] has as its system Epidermophyton floccosum CBS 55384. The following applies: CBS55384, Mueller-Hinton agar, 18 h at 36° C. As to the method:
(§2) Petri dishes 9.0 cm in diameter were charged with 13.5 ml freshly prepared Mueller-Hinton agar (Merck, Ref. 1.05437 or Wilkins-Chalgren agar boullion, Oxoid, Ref. CM 643, supplemented with log agar-agar/liter) kept liquid at 50° C., to which the various concentrations of the diluted samples were added in 10% (V/V)=1.5 ml. Mueller-Hinton agar that contained 3% Tween80 (Merck, Ref. 8.22 187) was used for the test germ Malassezia furfur. In each case 5 ml of the samples were diluted in distilled water and made up to 10 ml. The further test concentrations of the particular dilution series, which were prepared in the form of geometric series, were prepared by progressive 1:2 dilution of this batch with distilled water. […] Two agar plates were poured per test concentration and nutrient medium. After solidification and drying (approx. 1 h at 37° C.), the test plates were inoculated in point form with, in each case, 1 μl of the test germ suspensions listed below. To check purity and identity the bacteria that grow aerobically (Brevibacterium epidermidis, Corynebacterium xerosis, Staphylococcus epidermidis) were [lacuna] on Columbia blood agar (BioMérieux, Ref. 43049). The mould Aspergillus niger, the yeast Candida albicans and the two skin fungi Trichophyton mentagrophytes and Epidermophyton floccosum were cultured on Sabouraud agar (BioMérieux, Ref. 43555). Malassezia furfur was cultured on Sabourad HLT agar with disinhibitors (addition of 3% Tween80: 1%; lecithin: 0.3%; histidine: 0.1%; Merck, Ref. 1.18368). Propionibacterium acnes was cultured on Schaedler agar (BioMérieux, Ref. 43273). Further details on the test germs can be taken from Table 5. For preparation of the other test germ suspensions, the test strains were cultured on the abovementioned solid nutrient medium, harvested using sterile swabs and taken up or diluted in such an amount of Mueller-Hinton broth that the turbidity of the suspensions corresponded to McFarland standard 0.5. All test germ suspensions with the exception of Propionibacterium acnes were diluted again 1:10 with sterile broth and the germ count thereof was determined by the surface method using a Spiralometer (results: see Table 5). The MIC (minimum inhibitory concentration) was regarded as the lowest concentration of active compound at which macroscopically there is no growth. Minimal, barely visible growth or few small individual colonies were evaluated as inhibition.

Assay [5] concerns Malassezia furfur DSM 6171. Conditions: DSM6171, Mueller-Hinton agar + 3% Tween 80, 72 h at 30° C. As to the method: as §2
The test system of assay [6] is Trichophyton mentagrophytes CBS 26379. The following applies: CBS26379, Mueller-Hinton agar, 72 h at 30° C. As to the method:
as §2

In general, MIC refers to the lowest concentration found to suppress growth. Take `CCCCC(O)CO` (stereo not drawn) [HE3, 1,2-hexanediol]: the minimum inhibitory concentration (MIC) amounted to 25000 µg/mL (≈ 212 mM) in assay [1]; 12500 µg/mL (≈ 106 mM) in assay [2]; 25000 µg/mL (≈ 212 mM) in assay [3]; 6250 µg/mL (≈ 52.9 mM) in assay [4]; 12500 µg/mL in assay [5]; 6300 µg/mL (≈ 53.3 mM) in assay [6].
Turning to `CCCCCCC(O)CO` (stereo not drawn) [OC3, 1,2-octanediol], the minimal inhibitory concentration (MIC) in assay [1] amounted to 3120 µg/mL (≈ 21.4 mM); in assay [2], 6250 µg/mL (≈ 42.7 mM); in assay [3], 12500 µg/mL (≈ 85.5 mM); in assay [4], 3120 µg/mL (≈ 21.4 mM); in assay [5] it was 50000 µg/mL; in assay [6], 1560 µg/mL (≈ 10.7 mM).
